Legend:
[1] = system: Aβ42-treated cortical neurons; assay: Western blot of lysates of Aβ42-treated rat cortical neurons treated with clomipramine; format: cell-based; conditions: for cell cycle related neuronal apoptosis by immunoblotting (PCNA, cleaved caspase-3): 48 h (FIGS. 3D-3F)
Excerpt: The effect of clomipramine on cell cycle related neuronal apoptosis (CRNA) was investigated in Aβ42-treated cortical neurons (Aβ42 peptide induces neurodegeneration in AD patients). The TAp73 levels were restored upon clomipramine treatment (FIG. 1A). […] FIGS. 1B, 1C, and 1D show the quantification of TAp73, PCNA, and cleaved caspase-3 levels of the Western blot of FIG. 1A.
To determine an effective concentration of clomipramine, Aβ42 treated rat cortical neurons were subjected to different concentrations (10 nM to 100 nM) of clomipramine for 48 h. Lysates were prepared and immunoblotting was performed.
After 48 h, one set of cells were lysed, lysates were prepared and the lysates were subjected to immunoblotting.

[2] = system: AD transgenic mouse model (Tg) cortical neurons; assay: Western blot of cortical neuron lysate from AD transgenic mouse model (Tg) treated with clomipramine; format: cell-based; conditions: Western blot (FIG. 2A)
Excerpt: The effect of clomipramine on cell cycle related neuronal apoptosis (CRNA) was also explored in AD transgenic mouse model (Tg) cortical neurons (in this mouse model, there is an increased production of Aβ42 which induces neurodegeneration similar to AD patients).

TAp73 = assay: Immunoprecipitation of TAp73 and ubiquitination blot in presence of proteasome inhibitor MG132; format: cell-based, rat; conditions: TAp73 immunoprecipitated in presence of MG132 (FIG. 2B)
[3] = system: Aβ42 treated cortical neurons; assay: BrdU incorporation / TUNEL labelling of Aβ42-treated cortical neurons; format: cell-based, rat
Method: Subsequently, BrdU incorporation and TUNEL labelling was performed to detect DNA replication and apoptosis, respectively. […] These findings indicate that clomipramine inhibits CRNA in AD neurons by preventing TAp73 degradation.
To another set of cells, BrdU was added after 48 h to label the neurons undergoing the replication (cell cycle re-entry). After that TUNEL assay was performed to label the cells undergoing apoptosis (FIG. 3G). The number of double positive cells were scored and plotted in the graph (FIG. 3H).

[4] = system: APP/PS1 transgenic (TgAD) mouse model for AD; assay: Morris water maze test in TgAD mice; format: in vivo; conditions: 25 mg/kg I.P. for 45 days
Method: (§1) Next, the effect of clomipramine was tested in an in vivo mouse model of AD. For this, Amyloid Precursor Protein (APP)/Presenillin 1 (PS1) transgenic (TgAD) mouse model for AD (strain name B6C3-Tg APPswe, PSEN1dE9 85Dboa; stock number 004462) was used. Wild type and transgenic (TgAD) mice were genotyped using genomic DNA isolated from mouse tail and PCR primers according to the Jackson laboratory protocol. Clomipramine hydrochloride, obtained from Sigma (C-7291), was dissolved in ultrapure MQ just before the injection and 100 μl of this solution was injected intraperitonially (I.P.injections) to each mouse of 23-25 g in weight (25 mg/kg body weight) for 45 days. Various behaviour tests (Morris water maze, Y-maze and Radial arm maze) were performed on clomipramine/saline injected mice.
For Morris water maze test, animals were subjected to three trials per session and one session a day, for five days. Each trial was for 60 s in which mice had to reach the hidden platform in the water, and the average time per session was recorded as escape latency. After the escape training, the platform was removed for the probe trial test. It tested the retention of spatial memory at 24 h after training (Vorhees and Williams 2006, Nunez 2008). The number of times a mouse crossed the probe, the time spent in the target quadrant, and swim speed were recorded using ANY-maze software (Stoelting Co., USA).
For in vivo studies, ˜6 months old WT/TgAD mice were intraperitonially injected with 25 mg/kg body weight of clomipramine for 45 days (FIG. 4A) and subjected to various behavior tests. […] After five days of training, probe trial was performed and observed that WT mice spent […] time searching for the platform in the area of previous location (target quadrant) than the TgAD reflected by FIG. 5B. […] These observations indicate improved spatial learning in TgAD mice upon clomipramine treatment.

[5] = system: APP/PS1 transgenic (TgAD) mouse model for AD; assay: Y-maze test in TgAD mice; format: in vivo
Method: as §1
For Y-Maze test, animals were habituated in the Y-shaped maze for 3 min with one of the arms blocked then their spontaneous alternations were recorded with all arms open for 5 min (Miedel, Patton et al. 2017). The number of alternations was recorded manually and percent spontaneous alternations were calculated as mentioned below: […]
Y-maze test is an initial test of memory function. […] The memory function was tested when the animal was returned to the maze with all arms open and the tendency to spend time in the new or familiar arms was monitored.

[6] = system: APP/PS1 transgenic (TgAD) mouse model for AD; assay: Radial arm (8-arm) maze test in TgAD mice; format: in vivo
Method: as §1, with “Various behaviour tests (Morris water maze, Y-maze and Radial arm maze) were performed on clomipramine/saline injected mice.” left out
For radial arm (8-arm) maze test, mice were given restricted amount of food until their bodyweight reduced to 85% of the initial weight for two days prior to habituation in the maze. […] On the test day, all arms were opened and same five arms were baited as in trial sessions and their series of entries were recorded manually (Miyakawa, Yamada et al. 2001), from which the percentage of working and reference memory errors were calculated. The mouse entering an arm containing food where it had previously entered, was counted as working memory error (short term memory) and if the mouse entered in an arm without bait, was counted as reference memory error (long term memory for position of the baited arms). […]

[7] = Tolerability of chronic clomipramine treatment in WT/TgAD mice; format: in vivo, mouse
Method: as §1
Radial arm maze test was also performed to assess the long term as well as short term memory of mice (Penley, Gaudet et al. 2013, Fredriksson, Sreedharan et al. 2019). For this purpose, the 24 h food deprived mice were placed on the central platform of 8-arm maze and allowed to explore the maze for food (bait) placed at the end of each arm as depicted in FIG. 8A. Each training/testing session was 10 min long. […] TgAD mice group committed more reference and working memory errors than WT.

TgAD cortex = assay: Western blot of cortex region of brain of clomipramine-treated TgAD mice; format: in vivo, mouse
Method: The animals used in the above-mentioned behavioral tests were euthanized and cortex region of brain was dissected out for biochemical analysis. The levels of Itch, TAp73, PCNA and cleaved caspase-3 were determined with Western blotting (FIG. 9A). FIGS. 9B-9F show the quantification of the levels of Itch, TAp73, PCNA and cleaved caspase-3 of the Western blot of FIG. 9A. After analysis of six animals from each group, it was observed that TAp73 protein levels, which were reduced in TgAD cortex, were much higher in clomipramine treated TgAD brains. […] Importantly, CRNA which is exacerbated in TgAD cortex was reversed in clomipramine-treated mice as indicated by decrease in PCNA and cleaved caspase 3 (FIG. 9A).

[8] = 4 groups of mice treated with clomipramine and saline, 25 mg/kg I.P. 45 days
[9] = TgAD mice, 25 mg/kg I.P. 45 days (FIG. 9A)

Question: Which “cell cycle related neuronal apoptosis by immunoblotting (PCNA, cleaved caspase-3)” value ([1]; 75 nM clomipramine) does the source give for CN(C)CCCN1c2ccccc2CCc2ccc(Cl)cc21 [clomipramine] here?
Answer: The value was “effective in reducing cell cycle related neuronalapoptosis”.

Question: What about the TAp73 levels ([1]; 75 nM clomipramine, 48 h, tested 10 nM to 100 nM (FIG. 3C)) of the same compound?
Answer: The TAp73 levels was “restoration in TAp73 levels was observed”.

Question: And the “cell cycle related neuronal apoptosis by immunoblotting (PCNA, cleaved caspase-3)” value ([1]; 100 nM clomipramine)?
Answer: Its value is “more apoptosis was observed”.

Question: What about the TAp73 levels ([1]; 100 nM clomipramine, 48 h, tested 10 nM to 100 nM (FIG. 3C)) of the same compound?
Answer: Its TAp73 levels is “restoration in TAp73 levels was observed”.

Question: And the TAp73 levels ([1]; Aβ42-treated cortical neurons, Western blot (FIG. 1A, 1B))?
Answer: The TAp73 levels was “restored”.

Question: And the “PCNA (cell cycle re-entry)” value ([1]; Aβ42-treated cortical neurons, Western blot (FIG. 1A, 1C))?
Answer: Its value is “significant decrease”.

Question: And the “cleaved caspase 3 (apoptosis)” value ([1]; Aβ42-treated cortical neurons, Western blot (FIG. 1A, 1D))?
Answer: The value was “significant decrease”.

Question: What about the “PCNA (cell cycle re-entry)” value [2] of the same compound?
Answer: Its value is “significant decrease”.

Question: What about the TAp73 levels [2] of the same compound?
Answer: Its TAp73 levels is “restored”.

Question: What about the “cleaved caspase 3 (apoptosis)” value [2] of the same compound?
Answer: The value was “significant decrease”.

Question: And the “ubiquitination of TAp73” value (TAp73)?
Answer: Its value is “less ubiquitination of TAp73”.

Question: And the “BrdU/TUNEL double positive cells (CRNA)” value ([3]; 75 nM compared with 100 nM clomipramine, 48 h (FIGS. 3G, 3H))?
Answer: The value was “more potent in preventing CRNA”.

Question: And the “BrdU+/TUNEL+ cells (CRNA)” value ([3]; Aβ42 treated cortical neurons (FIGS. 3A, 3B))?
Answer: The value was “significant reduction”.

Question: What about the “Morris water maze: time to reach the hidden platform (escape latency)” value ([4]; five days of training (FIG. 4B)) of the same compound?
Answer: The value was “marked improvement”.

Question: And the “Morris water maze: escape latency on the last day of training” value ([4]; last day (FIGS. 4B, 4C, 5A))?
Answer: Its value is “almost similar to the WT mice”.

Question: And the “Morris water maze probe trial: crossing of target quadrant area” value ([4]; platform removed (FIG. 5B))?
Answer: The value was “more frequently, almost similar to WT mice”.

Question: And the Y-maze spontaneous alternation ([5]; TgAD mice, 25 mg/kg I.P. for 45 days, compared to TgAD)?
Answer: Its Y-maze spontaneous alternation is “improvement of spontaneous alternation”.

Question: And the “Y-maze total number of arm entries” value ([5]; all groups, 25 mg/kg I.P. for 45 days (FIG. 7C))?
Answer: Its value is “no significant changes”.

Question: What about the “Radial arm maze reference memory errors (long term memory)” value ([6]; 25 mg/kg I.P. for 45 days (FIG. 8B)) of the same compound?
Answer: Its value is “significant improvement”.

Question: And the “Radial arm maze working memory errors (short term memory)” value ([6]; 25 mg/kg I.P. for 45 days (FIG. 8C))?
Answer: Its value is “significant improvement”.

Question: And the food intake [7, 8]?
Answer: The food intake was “No significant differences”.

Question: And the water intake [7, 8]?
Answer: Its water intake is “No significant differences”.

Question: And the “side effects of chronic treatment” value ([7]; mice, 25 mg/kg I.P. for 45 days)?
Answer: The value was “no major side effects”.

Question: What about the swimming speed ([7]; wild-type mice, clomipramine vs saline (FIG. 6A), p>0.05) of the same compound?
Answer: Its swimming speed is “almost unchanged”.

Question: And the body weight ([7]; wild-type mice, clomipramine vs saline (FIG. 6B), p>0.05)?
Answer: Its body weight is “almost unchanged”.

Question: What about the “learning and memory abilities” value ([7]; wild-type mice, clomipramine vs saline, p>0.05) of the same compound?
Answer: Its value is “almost unchanged”.

Question: And the “TAp73 protein levels in cortex” value (TgAD cortex; TgAD brains, 25 mg/kg I.P. 45 days, six animals per group (FIGS. 9A, 9B))?
Answer: Its value is “much higher”.

Question: And the “PCNA in cortex (CRNA)” value (TgAD cortex; [9])?
Answer: The value was “decrease”.

Question: What about the “cleaved caspase 3 in cortex (CRNA)” value (TgAD cortex; [9]) of the same compound?
Answer: The value was “decrease”.

From patent US20230372356A1, “CLOMIPRAMINE FOR THE TREATMENT OF ALZHEIMER'S DISEASE” (National Institute of Immunology, priority 2022, published 2023)
